This note sets out measurements from BindingDB's records for PubMed 11303056 (Kissei Pharmaceutical, 2001).

In experiment [1] the target is Beta-3 adrenergic receptor (Homo sapiens, UniProt P13945).
Experiment [2] addresses Beta-2 adrenergic receptor (Homo sapiens, UniProt P07550).

Chain of Beta-3 adrenergic receptor (P13945 whole entry): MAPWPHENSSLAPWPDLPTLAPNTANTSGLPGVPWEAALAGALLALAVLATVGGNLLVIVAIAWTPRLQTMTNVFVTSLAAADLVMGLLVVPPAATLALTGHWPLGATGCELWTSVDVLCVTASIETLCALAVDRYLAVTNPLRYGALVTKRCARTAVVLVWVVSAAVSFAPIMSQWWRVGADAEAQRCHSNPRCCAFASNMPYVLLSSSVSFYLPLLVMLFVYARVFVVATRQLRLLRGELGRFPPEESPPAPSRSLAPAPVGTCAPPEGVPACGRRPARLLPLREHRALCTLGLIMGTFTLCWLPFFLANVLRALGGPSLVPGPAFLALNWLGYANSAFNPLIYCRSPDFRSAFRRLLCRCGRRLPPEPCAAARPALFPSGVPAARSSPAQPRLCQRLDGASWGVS
Chain of Beta-2 adrenergic receptor (P07550 whole entry): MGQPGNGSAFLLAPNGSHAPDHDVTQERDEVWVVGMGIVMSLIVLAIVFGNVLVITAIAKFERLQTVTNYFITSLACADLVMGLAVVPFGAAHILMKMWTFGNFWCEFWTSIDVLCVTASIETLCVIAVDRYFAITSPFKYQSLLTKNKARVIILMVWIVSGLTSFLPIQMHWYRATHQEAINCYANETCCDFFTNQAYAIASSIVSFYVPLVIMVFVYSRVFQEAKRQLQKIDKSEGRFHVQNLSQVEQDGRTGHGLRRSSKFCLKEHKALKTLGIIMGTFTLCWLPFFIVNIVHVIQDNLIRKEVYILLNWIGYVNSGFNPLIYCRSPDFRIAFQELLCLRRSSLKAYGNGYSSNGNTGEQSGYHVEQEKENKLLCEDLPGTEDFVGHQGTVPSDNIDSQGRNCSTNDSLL

By Ki is commonly meant a dissociation constant, usually derived from enzyme kinetics or from competition with a known ligand. A low value points to a stronger hold on the target. Turning to `CN(C)C(=O)COc1ccc2c(c1)C[C@@H](NC[C@H](O)c1ccc(O)c(CCO)c1)CC2` [KUR-1246], the Ki in experiment [1] is greater than 10000 nM; in experiment [2], 25.7 nM.
